AC50 data for 95 compounds are collected here from PubChem BioAssay AID463074 (Broad Institute, 2010).

The source made the active and inactive calls.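 How the source made its calls: active means AC50 no more than tenfold above the top dose tested, or full inhibition at every dose with a flat fit (cut at about 19 µM in these data); inconclusive means flat curve fit with inhibition between 30% and 70%, or poor fit; inactive means AC50 more than tenfold above the top dose tested.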

This test relates to HMLE_sh_eGFP viability, CellTiter-Glo luminescence, 72 h. Nature of the test: viability loss of HMLE_sh_eGFP cells – cell-based, luminescence, counter-screen for HMLE_sh_ECad selective toxicity project, dose response (AID 463074).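 Further: counterscreen control line to flag general toxicity for the HMLE_sh_ECad screen; potency for loss of viability as luminescence drops below DMSO wells.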
In the case of `NC(=O)c1cc([N+](=O)[O-])ccc1NCc1ccc(O)cc1`, the half-maximal activity concentration (AC50) was 3.1 µM.

For `CCOC(=O)N1CCN(c2ccc(C(=O)c3cccc(F)c3)cc2)CC1`, the AC50 is > 19.5 µM (inactive).

On to `COc1ccc(/C=C/C(=O)c2ccc(NS(=O)(=O)c3ccc(C)cc3)cc2)cc1O`, for which the AC50 was 3.56 µM.

For `CNc1oc(-c2ccc(Cl)cc2)nc1P(=O)(c1ccccc1)c1ccccc1`, the AC50 is 9.43 µM.

On to `Cc1ccc(Oc2nc(CN3CCOCC3)nc3sc4c(c23)CCC(C)C4)cc1C` (stereo not given), for which the concentration at half-maximal activity (AC50) is 6.32 µM.

With `COc1ccc(-c2sc3cc(OC)c(OC)cc3c2-c2ccc(O)cc2)cc1`, the AC50 was 3.7 µM.

Take `Cc1nn(-c2ccccc2)c2nc(N)c(C#N)c(-c3ccc(C(C)(C)C)cc3)c12`: the AC50 was 3.24 µM.

Take `Cc1cc(C)nc(NC(=O)c2ccc(COc3ccccc3Cl)cc2)c1`: the AC50 was 0.401 µM.

On to `CCCC(c1nnnn1CC1CCCO1)N1CCN(c2cc(Cl)ccc2C)CC1` (stereo not given), for which the AC50 is 2.78 µM.

Turning to `CC(=O)Oc1ccc2ccccc2c1C(NC(=O)Cc1ccccc1)c1ccc(Cl)cc1` (stereo not given), the concentration at half-maximal activity (AC50) is 6.3 µM.

On to `COc1ccc(-c2nc(N)nc(C)c2Oc2ccccc2Br)c(O)c1`, for which the AC50 is 5.08 µM.

As for `CC(C)=CCc1c(O)cc2c(=O)c3ccc(O)cc3oc2c1O`, the AC50 is 6.87 µM.

Take `COc1cc(-c2nc(-c3ccc(NC(=O)c4ccc(Br)o4)cc3)no2)cc(OC)c1OC`: the AC50 is 3.5 µM.

`C=C(C)COc1ccc(-c2nc(N)ncc2-c2ccc(Cl)cc2)c(O)c1`: the AC50 was 4 µM.

Turning to `Cc1cccc(NC(=O)c2nc[nH]c2C(=O)NC2CCN(C(=O)OC(C)(C)C)CC2)c1`, the AC50 was 6.79 µM.

Turning to `Cc1ccccc1CS(=O)(=O)c1ncc(Cl)c(C(=O)Nc2ccc(F)cc2)n1`, the AC50 is 4.11 µM.

On to `Nc1nnc(SCC(=O)OCC(=O)NC2CCCCC2)s1`, for which the AC50 is > 19.5 µM (inactive).

For the compound `Cn1c2ccccc2c(=O)c2cc(C#Cc3ccccn3)ccc21`, the AC50 is > 19.5 µM (inactive).

`CCCCC(=O)NC(c1ccco1)c1cc(Cl)c2cccnc2c1O` (stereo not given): the AC50 is 5.79 µM.

`CC(NC(=O)C1CCC(C(=O)NC(C)c2ccccc2)CC1)c1ccccc1` (stereo not given): the AC50 is > 19.5 µM (inactive).

With `N#CC1=C(SCC(=O)c2ccc(Br)cc2)NC2=C(C(=O)CCC2)C1c1ccco1` (stereo not given), the AC50 is 2.21 µM.

On to `CCCc1[nH]c2ccc(C#N)cc2c1CCC`, for which the AC50 was 4.14 µM.

For the compound `Cc1ccc(C(C)C)c(OCc2nn(CC(=O)c3ccc(Cl)cc3)c3[n+]2CCCCC3)c1`, the AC50 was 3.22 µM.

As for `N#Cc1c(NC(=O)Cn2c(=O)oc3ccccc32)oc(-c2ccccc2)c1-c1ccccc1`, the AC50 is 4.24 µM.

Turning to `CCCCC(=O)Nc1nc(C)c(-c2csc(Nc3cc(OC)ccc3OC)n2)s1`, the AC50 is 2.27 µM.

Turning to `COc1ccc(-c2sc3ccccc3c2-c2ccc(OCCN(C)C)cc2)cc1`, the AC50 was 3.38 µM.

In the case of `CCc1nc(N2CCN(Cc3ccc4c(c3)OCO4)CC2)c2oc3ccccc3c2n1`, the AC50 was 3.85 µM.

Regarding `COc1ccc(-c2sc3ccccc3c2/C=C/c2ccncc2)cc1`, the half-maximal activity concentration (AC50) was 6.68 µM.

For the compound `O=[N+]([O-])c1cc(-c2cnc3ccccc3n2)ccc1Oc1ccc(Cl)cc1`, the AC50 was 3.38 µM.

On to `Nc1ncnc2c1c(-c1ccc(Oc3ccccc3)cc1)cn2C1CCCC1`, for which the AC50 is 1.7 µM.

Consider `C/C(N)=C(/C#N)C(=O)COC(=O)c1cc(-c2ccc(C)cc2)nc2ccccc12`, for which the AC50 was 15 µM.

For the compound `Cc1nnc(-c2ccc(Oc3ccc(Cl)cc3)c([N+](=O)[O-])c2)o1`, the AC50 was 0.33 µM.

Turning to `COc1ccc(O)c(/C=N/Nc2nc(Nc3ccccc3)nc(-n3nc(C)cc3C)n2)c1`, the AC50 is 3.52 µM.

As for `Sc1nnc(-c2ccc(Cl)cc2)n1Cc1ccccc1`, the AC50 is 8.62 µM.

For `CCN1CCN(c2ccc(NC(=O)CCc3c(C)nc4c(-c5ccc(F)cc5)c(C)nn4c3C)cc2)CC1`, the AC50 is 5.22 µM.

With `CC1CCCCC1NC(=O)/C(C#N)=C/c1ccccc1F` (stereo not given), the AC50 was 7.72 µM.

In the case of `COc1cc(/C=N/NC(=O)c2cc(C34CC5CC(CC(C5)C3)C4)[nH]n2)ccc1O`, the AC50 was 0.24 µM.

Consider `COc1cccc(NP(=O)(Oc2ccccc2)Oc2ccccc2)c1`, for which the AC50 is 15.1 µM.

Consider `Cc1ccc2nc(NNC(=O)c3ccc(S(=O)(=O)N4CCc5ccccc5C4)cc3)sc2c1`, for which the AC50 is 3.91 µM.

As for `FC(F)(F)c1cc(CCN2CCNC[C@@H]2Cc2ccccc2)cc(C(F)(F)F)c1`, the half-maximal activity concentration (AC50) was 13.7 µM.

Turning to `CCCCc1ccc(NC(=O)Nc2cc(C)nn2C)cc1`, the concentration at half-maximal activity (AC50) is 2.09 µM.

As for `Cc1ccccc1NCc1ccc([N+](=O)[O-])s1`, the AC50 is 10.6 µM.

`C=CCn1c(SCCC)nc2sc3c(c2c1=O)CCc1ccccc1-3`: the AC50 was 2.26 µM.

In the case of `FC(F)(F)c1cc(-c2ccc(Cl)cc2)nc(NCc2cccnc2)n1`, the AC50 was 14 µM.

In the case of `Oc1ccc(N=Nc2ccc(Br)cc2)c(O)c1`, the AC50 was 17.3 µM.

Turning to `NC(=O)CC(NC(=O)Cc1cccc2ccccc12)c1ccc(NC2CCCCCCC2)c([N+](=O)[O-])c1` (stereo not given), the AC50 was 12 µM.

On to `CCOC(=O)Nc1ccc(Cc2ccncc2)cc1`, for which the AC50 was > 19.5 µM (inactive).

For `COc1ccc2nc(NC(=O)c3cccc(-c4cc5ccccc5oc4=O)c3)sc2c1`, the AC50 was 4.88 µM.

Consider `O=C(O)CCn1cc(/C=C/C(=O)c2ccc(Cl)cc2)c(-c2ccc(Br)cc2)n1`, for which the half-maximal activity concentration (AC50) is 7.09 µM.

In the case of `CCCN1C/C(=C/c2ccc3c(c2)OCO3)C(=O)/C(=C/c2ccc3c(c2)OCO3)C1`, the concentration at half-maximal activity (AC50) is 1.12 µM.

As to `O=C(C[C@@H]1C/C=C/CC[C@H](Cc2ccc(F)cc2)C(=O)OC[C@@H](Cc2ccccc2)NC1=O)N[C@H](CO)Cc1ccccc1`, the AC50 is 1.56 µM.

`O=C1C=C(c2ccc(F)cc2OCc2ccccc2)C[C@@H](c2ccc(F)cc2)C1`: the concentration at half-maximal activity (AC50) was 2.25 µM.

`CC1(O)CC(c2ccc(Cl)cc2)=NN1C(=O)c1ccc([N+](=O)[O-])cc1` (stereo not given): the AC50 is 6.72 µM.

With `COC(=O)c1sc2nc(N3CCCCC3)c3c(c2c1N)CCCC3`, the AC50 is 4.94 µM.

Take `Cc1nc(Nc2ccc(Cl)cc2Cl)sc1C(=O)Nc1ccccc1`: the AC50 is 11.5 µM.

On to `O=C(/C=C/c1ccc(Cl)c([N+](=O)[O-])c1)c1ccc(O)cc1`, for which the AC50 was 3.72 µM.

`N/C(=N\N=C/c1ccc(F)cc1)N/N=C\c1ccc(F)cc1`: the AC50 is 5.13 µM.

In the case of `Cc1ccc(NNC(=O)c2cccs2)cc1Cl`, the AC50 was 2.19 µM.

Consider `C=C[C@@H]1c2cccc(C)c2N(S(=O)(=O)c2ccc(C)cc2)[C@H](c2ccc(OC(C)=O)cc2)C1(C#N)C#N`, for which the AC50 was 6.71 µM.

Take `OCCCCC#Cc1c(-c2ccsc2)sc2ccccc12`: the AC50 was 5.56 µM.

Regarding `CCCc1c(-c2ccc(O)cc2)nn(-c2ccc(O)cc2)c1-c1ccc(O)cc1`, the half-maximal activity concentration (AC50) was 6.1 µM.

In the case of `CN1CCN(C2Cc3ccccc3Sc3cc(C(F)(F)F)ccc32)CC1` (stereo not given), the AC50 is 6.9 µM.

As for `O=C(NC(=S)Nc1ccc(N2CCCCC2)c(Cl)c1)c1cccs1`, the AC50 is 8.62 µM.

`CC(C)N1CCN(Cc2ccc(OC3CCCC3)cc2)CC1CCO` (stereo not given): the AC50 was 16.7 µM.

Turning to `Clc1ccc(/C=C/c2nc3ccccc3[nH]2)cc1`, the AC50 was 3.5 µM.

Consider `COC(=O)c1cc(=O)n(Cc2cccs2)c(=Nc2ccc(F)cc2)s1`, for which the AC50 is 3.58 µM.

Regarding `Cc1ccc(CCC(=O)Nc2ncc(Cc3cc(Cl)ccc3Cl)s2)o1`, the AC50 was 13.6 µM.

`N#Cc1c([N+](=O)[O-])cc([N+](=O)[O-])cc1S(=O)(=O)Cc1ccccc1`: the half-maximal activity concentration (AC50) was 3.62 µM.

Consider `CCOC(=O)c1c2ccc(OCC(=O)N/N=C/c3ccc(C)cc3)cc2n2ccccc12`, for which the AC50 was 11.8 µM.

Turning to `COc1ccc(OC)c(-c2cc(-c3cccnc3)nc(N)c2C#N)c1`, the AC50 is 1.95 µM.

Take `CCCCCCC[C@@H](C/C=C/CCC(=O)N(C)C/C(=C/Cl)C/C(=C\C(=O)N1CC(OC)=CC1=O)OC)OC`: the AC50 was 5.38 µM.

Regarding `COCCN(C(=O)C(C)C)c1nnc(-c2ccc(C(C)(C)C)cc2)s1`, the AC50 was 3.06 µM.

For the compound `COc1cccc(/C=C/c2nc(C#N)c(NCC(C)C)o2)c1`, the AC50 is 5.06 µM.

For `COc1ccc(C(=O)C2CCCN(Cc3cc(C)c(O)c(C)c3)C2)c(OC)c1` (stereo not given), the AC50 is 4.9 µM.

For the compound `CS(=O)(=O)c1ccc(C(=O)OCC(=O)NC23CC4CC(CC(C4)C2)C3)cc1[N+](=O)[O-]`, the AC50 is 2.39 µM.

Turning to `Cc1cc(C)c2nc(NNC(=O)c3cc(-c4cccs4)nc4ccccc34)sc2c1`, the AC50 was 2.95 µM.

`CCOC(=O)C(=O)NNc1ccc(Cl)cc1`: the AC50 was 1.37 µM.

`CC(C)(C)OC(=O)[C@H](Cc1ccccc1)NC(=O)c1[nH]cnc1C(=O)Nc1cccc(Cl)c1`: the half-maximal activity concentration (AC50) was 3.93 µM.

`Cn1cncc1C#Cc1c(-c2ccsc2)sc2ccccc12`: the AC50 was 7.26 µM.

For `CCc1ccc(CCC(=O)Nc2ncc(Cc3ccccc3Cl)s2)o1`, the AC50 was 0.322 µM.

For `O=[N+]([O-])c1cc(C(F)(F)F)ccc1NCCc1c[nH]c2ccccc12`, the half-maximal activity concentration (AC50) is 4.16 µM.

Consider `C=C1C(=O)C=C[C@]2(C)C[C@@H]3OC(=O)[C@](C)(O)[C@H]3C[C@@H]12`, for which the AC50 was 9.76 µM.

On to `COc1cc(/C=C(/C#N)c2nc3ccccc3[nH]2)ccc1OCC(=O)Nc1ccccc1C`, for which the AC50 was 1.06 µM.

Take `CCN(CC)c1ccc2cc(S(=O)(=O)c3ccc(Cl)cc3)c(=O)oc2c1`: the half-maximal activity concentration (AC50) was 4.98 µM.

As to `COc1cccc(-c2sc3ccc(OC)cc3c2-c2ccc(OCCN(C)C)cc2)c1`, the AC50 was 3.59 µM.

With `Clc1ccc2nnnc(-c3ccccc3)c2c1`, the AC50 was 4.26 µM.

On to `C=CCSC(=C(C#N)C#N)c1cc2c([nH]1)CCCC2`, for which the AC50 is 13.5 µM.

On to `Cc1occc1C(=O)Nc1ccc(OCc2ccccc2)cc1`, for which the AC50 is 6.25 µM.

Take `Cc1cccc(N=N/C(=C\O)C(=O)c2cccs2)c1`: the AC50 is 6.25 µM.

`O=C(CS(=O)c1ccc(C(F)(F)F)cc1[N+](=O)[O-])Oc1ccccc1` (stereo not given): the AC50 is 5.22 µM.

Consider `N#C/C(=C/c1ccc(O)c(O)c1)C(=O)NCc1ccc(Cl)cc1`, for which the AC50 is 13.7 µM.

On to `Cc1nc(Nc2nc(CSc3nc4ccccc4[nH]3)cc(=O)[nH]2)nc2ccccc12`, for which the AC50 is 2.69 µM.

Turning to `O=C(CCC(=O)N1CCN(c2ccc(O)cc2)CC1)c1ccc(Br)cc1`, the concentration at half-maximal activity (AC50) was 2.64 µM.

On to `COc1cc(/C=C/c2ccc3cccc(OC)c3n2)c(OC(C)=O)c([N+](=O)[O-])c1`, for which the AC50 was 16.2 µM.

For the compound `Cc1ccccc1C(=O)N1CCN(c2ccc(NC(=O)c3ccc([N+](=O)[O-])o3)cc2)CC1`, the AC50 was 4.37 µM.
